We go through ten compounds from ChEMBL document CHEMBL1201862, “PubChem BioAssay data set” (2004).

What all share (assay): NCI anticancer screen, dose series, 48 h
The test system of experiment [1] is BT-549.
For experiment [2], the system named is MCF7.
Experiment [3] has as its system KM12.
For experiment [4], the system named is EKVX.
In experiment [5] the test system is SF-295.
Experiment [6] deals with K562.
The subject of experiment [7] is MDA-MB-231.
Experiment [8] deals with SF-539.
For experiment [9], the system named is SR.
Experiment [10] deals with HT-29.
The test system of experiment [11] is ACHN.
In experiment [12] the test system is OVCAR-5.
Experiment [13] has as its system HCT-15.
The subject of experiment [14] is NCI-H460.
In experiment [15] the test system is LOX IMVI.
For experiment [16], the system named is SNB-19.
In experiment [17] the test system is UO-31.
In experiment [18] the test system is RPMI-8226.
For experiment [19], the system named is HOP-92.
The test system of experiment [20] is IGROV-1.

Each structure is given as a SMILES string.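 Following 48 hours of exposure in 96-well plates, responses at five concentrations were used to interpolate endpoints linearly. GI50: concentration for 50% inhibition of growth.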 Active and inactive are the calls of the source. No stated cut-off is given here; in the data, active = GI50 up to about 1.1 µM and inactive = higher. A value given as a limit tells only on which side of the number the result lay.

Turning to `CC(=O)OCC1OC(O[C@@H]2C[C@H]3C(C)(C)[C@H](OC(C)=O)CC[C@]3(C)[C@H]3CC[C@@]45C[C@H](O)C[C@H](C)[C@@H]4CC=C5[C@@]32C)C(O)C(O)C1O` (stereo partly specified), the GI50 in [1] was 5.3 µM (inactive); in [2], 4.04 µM (inactive); in [3] it was 2.38 µM (inactive); in [4] it was 7.69 µM (inactive); in experiment [5], 3.66 µM (inactive); in experiment [6], 2.61 µM (inactive). Moreover, the GI50 in experiment [7] was 2.39 µM (inactive); in [8], 6.59 µM (inactive); in [9], 2.07 µM (inactive); in experiment [10], 1.91 µM (inactive); in [11] it was 6.05 µM (inactive); in [12] it was 2.18 µM (inactive). For the same compound, the GI50 is 11.2 µM in experiment [13]; 3.26 µM (inactive) in experiment [14]; 1.98 µM (inactive) in experiment [15]; 4.02 µM (inactive) in [16]; 13.1 µM (inactive) in experiment [17]; 2.42 µM (inactive) in [18]. Also, the GI50 in [19] is 4.01 µM (inactive); in [20] it was 2.71 µM (inactive).
For the compound `O=C1CCN2c3ccccc3[C@H]3Cc4cccc(c4[C@@H]2C3)CCO1`, the GI50 in experiment [1] is 57.8 µM (inactive); in [2], 41.5 µM (inactive); in [3], 34.9 µM (inactive); in [4] it was 38.5 µM (inactive); in experiment [5] it was 32.4 µM (inactive); in experiment [6], 21.8 µM (inactive). Besides, the GI50 is 83 µM (inactive) in experiment [7]; 79.3 µM (inactive) in [8]; 26.1 µM (inactive) in experiment [9]; 36.6 µM (inactive) in experiment [10]; 44 µM (inactive) in experiment [11]; > 100 µM (inactive) in experiment [12]. Also, the GI50 in experiment [13] is 26.9 µM; in experiment [14], > 100 µM (inactive); in experiment [15], 34.6 µM (inactive); in experiment [16], 86.9 µM (inactive); in experiment [17], 22.9 µM (inactive); in experiment [18], 31 µM (inactive). Further, the results for the GI50 in experiment [19] and in experiment [20] were 31 µM (inactive) and 22 µM (inactive), respectively.
As for `CCCN(C(=O)c1ccccc1)C(C#N)c1ccc(C(C#N)N(CCC)C(=O)c2ccccc2)cc1` (stereo unspecified), the GI50 in experiment [1] was 48.4 µM (inactive); in [2], > 100 µM (inactive); in experiment [3] it was > 100 µM (inactive); in experiment [4], 58.3 µM (inactive); in experiment [5], 42.4 µM (inactive); in experiment [6] it was > 100 µM (inactive). For the same compound, the GI50 in experiment [7] was 66.1 µM (inactive); in [8], 28.5 µM (inactive); in experiment [9] it was > 100 µM (inactive); in experiment [10] it was 21.6 µM (inactive); in experiment [11], 84.1 µM (inactive); in experiment [12] it was 93.3 µM (inactive). In addition, the GI50 in experiment [13] is more than 100 µM; in experiment [15], > 100 µM (inactive); in experiment [16] it was 26.1 µM (inactive); in [17] it was > 100 µM (inactive); in experiment [18] it was > 100 µM (inactive); in [19], 16.3 µM (inactive). The GI50 in experiment [20] is 32.4 µM (inactive).
On to `CN1CC(S(=O)(=O)c2ccccc2)CC(S(=O)(=O)c2ccccc2)C1c1ccccc1` (stereo unspecified), for which the GI50 in [1] was 11.7 µM (inactive); in experiment [2] it was 12.4 µM (inactive); in [3], 13.2 µM (inactive); in experiment [4], 14.3 µM (inactive); in [5], 29.4 µM (inactive); in experiment [6] it was 15 µM (inactive). In addition, the GI50 was 15.3 µM (inactive) in experiment [7]; 4.86 µM (inactive) in experiment [8]; 6.22 µM (inactive) in experiment [9]; 14.8 µM (inactive) in experiment [10]; 12.5 µM (inactive) in [11]; 15.2 µM (inactive) in experiment [12]. In addition, the GI50 in experiment [13] was 12.4 µM; in [14], 16.2 µM (inactive); in experiment [15], 11.7 µM (inactive); in [16], 23.4 µM (inactive); in [17], 15.3 µM (inactive); in [19], 18.2 µM (inactive). For the same compound, the GI50 in [20] is 25.9 µM (inactive).
With `CN1CCCC2C(c3ccccc3)C(C3=NCCCC3)C(c3ccccc3)CC21` (stereo unspecified), the GI50 in [1] was 33.3 µM (inactive); in experiment [2] it was 56.6 µM (inactive); in experiment [3], 53.2 µM (inactive); in experiment [4], 71 µM (inactive); in experiment [5], 49.2 µM (inactive); in experiment [6], 17.2 µM (inactive). In addition, the GI50 is 51.2 µM (inactive) in experiment [7]; 16 µM (inactive) in experiment [8]; 32.1 µM (inactive) in [9]; 19.5 µM (inactive) in experiment [10]; 72.3 µM (inactive) in experiment [11]; > 100 µM (inactive) in experiment [12]. In addition, the GI50 was 27.2 µM in experiment [13]; 27.7 µM (inactive) in experiment [14]; 19.5 µM (inactive) in experiment [15]; > 100 µM (inactive) in experiment [16]; 18.4 µM (inactive) in experiment [18]; 85.9 µM (inactive) in [19]. Also, the GI50 in experiment [20] is 50 µM (inactive).
As for `Cc1ccc(C2=C(C#N)C(=O)N3CCN=C3S2)cc1`, the GI50 was > 100 µM (inactive) in [1]; > 100 µM (inactive) in experiment [2]; > 100 µM (inactive) in experiment [3]; > 100 µM (inactive) in experiment [4]; > 100 µM (inactive) in [5]; 58.2 µM (inactive) in [6]. Moreover, the GI50 was > 100 µM (inactive) in [7]; > 100 µM (inactive) in experiment [8]; > 100 µM (inactive) in [9]; 57.1 µM (inactive) in experiment [10]; 45.1 µM (inactive) in experiment [11]; > 100 µM (inactive) in experiment [12]. Further, the GI50 in [13] is more than 100 µM; in experiment [14] it was > 100 µM (inactive); in [15] it was > 100 µM (inactive); in [16] it was 70.3 µM (inactive); in [17], > 100 µM (inactive); in [19], > 100 µM (inactive). In addition, the GI50 in experiment [20] was > 100 µM (inactive).
Consider `Oc1ccccc1/C=N/Nc1nc(N/N=C/c2ccccc2O)nc(N/N=C/c2ccccc2O)n1`, for which the GI50 in experiment [1] is 85.3 µM (inactive); in experiment [2], 8.63 µM (inactive); in [3], > 100 µM (inactive); in experiment [4], > 100 µM (inactive); in experiment [5], 86.1 µM (inactive); in experiment [6] it was > 100 µM (inactive). Moreover, the GI50 in experiment [7] was > 100 µM (inactive); in [8], > 100 µM (inactive); in [9], > 100 µM (inactive); in experiment [10], 69.7 µM (inactive); in [11] it was 69.7 µM (inactive); in experiment [12], > 100 µM (inactive). The GI50 in experiment [13] is 13.3 µM; in [14], 44.8 µM (inactive); in experiment [15] it was > 100 µM (inactive); in experiment [16] it was > 100 µM (inactive); in experiment [17], > 100 µM (inactive); in experiment [19] it was 21.1 µM (inactive). Also, the GI50 in experiment [20] was 45.4 µM (inactive).
Regarding `CC(C)=CCC[C@@H](C)/C=C/C=C(\C)C(=O)CC[C@@H]1CC[N@+]2(C)CCCC[C@H]12`, the GI50 in [1] was 65.6 µM (inactive); in experiment [2] it was > 100 µM (inactive); in experiment [3], > 100 µM (inactive); in [4], > 100 µM (inactive); in experiment [5] it was > 100 µM (inactive); in experiment [6], 49.9 µM (inactive). Besides, the GI50 is > 100 µM (inactive) in experiment [7]; > 100 µM (inactive) in experiment [8]; > 100 µM (inactive) in experiment [9]; > 100 µM (inactive) in [11]; 50.4 µM (inactive) in experiment [12]; more than 100 µM in experiment [13]. Further, the GI50 in [14] is > 100 µM (inactive); in [15] it was 35.2 µM (inactive); in [16], 31.3 µM (inactive); in [17] it was > 100 µM (inactive); in experiment [18], 70 µM (inactive); in experiment [19], 6.44 µM (inactive). Also, the GI50 in experiment [20] was 55.1 µM (inactive).
As for `O=C(C/N=C(\CN(c1ccccc1)c1ccccc1)Oc1c(Cl)cc(Cl)cc1Cl)n1cnc2ccccc21`, the GI50 in experiment [1] is 22.6 µM (inactive); in experiment [2] it was 71 µM (inactive); in experiment [3] it was 96.6 µM (inactive); in experiment [4], 50.7 µM (inactive); in experiment [5] it was > 100 µM (inactive); in experiment [6] it was 80.7 µM (inactive). The GI50 in experiment [7] is 74 µM (inactive); in experiment [8] it was > 100 µM (inactive); in experiment [9], 33.9 µM (inactive); in [10] it was 44.2 µM (inactive); in experiment [11] it was 78.2 µM (inactive); in experiment [12], 28 µM (inactive). Besides, the GI50 is 43.8 µM in [13]; > 100 µM (inactive) in experiment [14]; > 100 µM (inactive) in [16]; 44.6 µM (inactive) in experiment [18]; 59.6 µM (inactive) in experiment [19]; 39.6 µM (inactive) in [20].
For the compound `N#C/C=c1/c2ccccc2n2nc3ccccc3c12`, the GI50 in experiment [1] is > 100 µM (inactive); in experiment [2], 11.3 µM (inactive); in experiment [3], 17.3 µM (inactive); in experiment [4], 24.5 µM (inactive); in experiment [5] it was 21.7 µM (inactive); in experiment [6] it was > 100 µM (inactive). Also, the GI50 was 3.61 µM (inactive) in experiment [7]; 8.69 µM (inactive) in [8]; 5.79 µM (inactive) in experiment [9]; 25.6 µM (inactive) in experiment [10]; 6.71 µM (inactive) in experiment [11]; 67.6 µM (inactive) in [12]. Besides, the GI50 in [13] was 43.3 µM; in experiment [14] it was 8.09 µM (inactive); in experiment [15] it was 8.13 µM (inactive); in experiment [16], 16 µM (inactive); in experiment [17], 10.8 µM (inactive); in [18], 7.36 µM (inactive). Besides, the GI50 in experiment [20] was 7.19 µM (inactive).
